# Assay results as given in patent publication US11168073B2, “3,3-difluoroallylamines or salts thereof and pharmaceutical compositions comprising the same” (YUHAN CORPORATION, priority 2018, dated 2021).
# Where a name gives a salt, the structure may show the parent alone.
# What was measured:
# Assay type in all cases: biochemical
# [1] = target: T1, recombinant human MAO-A (monoamine oxidase-A) (Homo sapiens, UniProt P21397); assay: Activity evaluation on recombinant human MAO-A (Amplex Red/HRP-coupled assay, 0.5 mM tyramine substrate); details: 0.5 mM tyramine, read-out: Inhibitory Activity (IC50, nM) MAO-A
# T1 construct: purchased Sigma-Aldrich
# T1 sequence (P21397 1-527): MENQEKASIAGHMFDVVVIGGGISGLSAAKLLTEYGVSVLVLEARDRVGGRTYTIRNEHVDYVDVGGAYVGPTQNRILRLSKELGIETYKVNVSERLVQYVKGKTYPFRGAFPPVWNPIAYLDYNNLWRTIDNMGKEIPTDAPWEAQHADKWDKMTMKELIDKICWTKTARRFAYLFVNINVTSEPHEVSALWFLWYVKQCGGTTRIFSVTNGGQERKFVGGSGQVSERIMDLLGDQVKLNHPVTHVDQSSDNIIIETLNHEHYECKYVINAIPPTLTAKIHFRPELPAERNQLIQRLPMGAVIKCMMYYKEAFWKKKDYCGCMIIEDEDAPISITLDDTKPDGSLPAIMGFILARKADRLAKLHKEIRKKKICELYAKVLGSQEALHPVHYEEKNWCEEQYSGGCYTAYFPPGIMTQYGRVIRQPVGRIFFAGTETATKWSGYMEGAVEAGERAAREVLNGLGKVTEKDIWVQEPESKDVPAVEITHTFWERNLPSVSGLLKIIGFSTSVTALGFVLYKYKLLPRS
# Outline: (§1)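 Using an HRP-coupled Amplex Red readout (544/590 nm, kinetic over 1–2 h), IC50 values were fitted by 4-parameter logistic model to percent decrease in signal rate against DMSO control. Compounds (1:3 dilutions, 8 points, <1% DMSO) sat 30 min at 37 °C with enzyme in pH 7.4 phosphate buffer before substrate, 200 uM Amplex Red and HRP were added.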
# recombinant human VAP-1 = target: T2, recombinant human VAP-1 (Homo sapiens, UniProt Q16853); assay: Activity evaluation on recombinant human VAP-1 (Amplex Red/HRP-coupled hydrogen peroxide assay, benzylamine substrate); details: recombinant human VAP-1; 30 min preincubation at 37° C.; 1 mM benzylamine; read-out: Inhibitory Activity (IC50, nM) human VAP-1
# T2 construct: purchased R&D systems
# T2 sequence (Q16853 1-763): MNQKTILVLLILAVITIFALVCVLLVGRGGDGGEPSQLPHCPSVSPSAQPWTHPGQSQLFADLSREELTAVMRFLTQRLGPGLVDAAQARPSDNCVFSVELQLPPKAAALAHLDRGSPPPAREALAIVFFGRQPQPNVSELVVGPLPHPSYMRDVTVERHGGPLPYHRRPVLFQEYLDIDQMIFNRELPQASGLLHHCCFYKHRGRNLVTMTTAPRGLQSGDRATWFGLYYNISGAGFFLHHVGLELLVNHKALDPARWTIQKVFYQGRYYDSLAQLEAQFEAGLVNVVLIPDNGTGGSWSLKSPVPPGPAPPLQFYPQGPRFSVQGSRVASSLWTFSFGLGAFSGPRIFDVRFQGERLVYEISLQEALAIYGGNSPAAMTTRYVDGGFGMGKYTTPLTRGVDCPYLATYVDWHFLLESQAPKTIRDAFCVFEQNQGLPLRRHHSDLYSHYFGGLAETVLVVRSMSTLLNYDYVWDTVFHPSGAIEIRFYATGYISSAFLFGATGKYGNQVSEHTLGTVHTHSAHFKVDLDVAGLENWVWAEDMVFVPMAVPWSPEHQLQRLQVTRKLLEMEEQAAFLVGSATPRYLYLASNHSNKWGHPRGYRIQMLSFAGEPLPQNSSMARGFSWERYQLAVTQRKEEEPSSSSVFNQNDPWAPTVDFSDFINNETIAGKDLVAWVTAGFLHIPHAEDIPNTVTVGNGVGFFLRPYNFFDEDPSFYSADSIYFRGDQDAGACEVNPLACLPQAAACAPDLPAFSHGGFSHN
# Outline: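 Hydrogen peroxide from benzylamine (1 mM) oxidation by human recombinant VAP-1 detected via HRP-coupled Amplex Red (200 uM) fluorescence, kinetic over 1–2 h. Enzyme and compound preincubated 30 min at 37 °C, pH 7.4 phosphate; 8-point dose response, signal-rate decrease versus DMSO control fitted to four-parameter logistic for IC50.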
# [2] = target: T3, recombinant human MAO-B (monoamine oxidase-B) (Homo sapiens, UniProt P27338); assay: Activity evaluation on recombinant human MAO-B (Amplex Red/HRP-coupled assay, 1 mM benzylamine substrate); details: 1 mM benzylamine, read-out: Inhibitory Activity (IC50, nM) MAO-B
# T3 construct: purchased Sigma-Aldrich
# T3 sequence (P27338 1-520): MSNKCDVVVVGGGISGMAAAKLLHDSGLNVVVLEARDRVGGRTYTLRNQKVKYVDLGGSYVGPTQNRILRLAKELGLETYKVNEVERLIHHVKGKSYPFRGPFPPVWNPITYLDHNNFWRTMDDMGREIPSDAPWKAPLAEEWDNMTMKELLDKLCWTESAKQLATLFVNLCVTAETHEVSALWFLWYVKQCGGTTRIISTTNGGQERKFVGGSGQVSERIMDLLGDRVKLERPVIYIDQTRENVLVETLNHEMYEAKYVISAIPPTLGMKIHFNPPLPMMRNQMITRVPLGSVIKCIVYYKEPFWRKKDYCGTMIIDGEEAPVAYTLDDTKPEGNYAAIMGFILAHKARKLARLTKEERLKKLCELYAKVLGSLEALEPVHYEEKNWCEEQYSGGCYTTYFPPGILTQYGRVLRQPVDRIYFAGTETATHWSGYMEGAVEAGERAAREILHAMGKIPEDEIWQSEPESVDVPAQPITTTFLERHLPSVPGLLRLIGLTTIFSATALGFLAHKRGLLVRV
# Outline: as §1
# [3] = target: T4, recombinant human DAO (diamine oxidase) (Homo sapiens, UniProt P19801); assay: Activity evaluation on recombinant human DAO (Amplex Red/HRP-coupled assay, 1 mM putrescine substrate); details: 1 mM putrescine, read-out: Inhibitory Activity (IC50, nM) DAO
# T4 construct: purchased R&D systems
# T4 sequence (P19801 20-751): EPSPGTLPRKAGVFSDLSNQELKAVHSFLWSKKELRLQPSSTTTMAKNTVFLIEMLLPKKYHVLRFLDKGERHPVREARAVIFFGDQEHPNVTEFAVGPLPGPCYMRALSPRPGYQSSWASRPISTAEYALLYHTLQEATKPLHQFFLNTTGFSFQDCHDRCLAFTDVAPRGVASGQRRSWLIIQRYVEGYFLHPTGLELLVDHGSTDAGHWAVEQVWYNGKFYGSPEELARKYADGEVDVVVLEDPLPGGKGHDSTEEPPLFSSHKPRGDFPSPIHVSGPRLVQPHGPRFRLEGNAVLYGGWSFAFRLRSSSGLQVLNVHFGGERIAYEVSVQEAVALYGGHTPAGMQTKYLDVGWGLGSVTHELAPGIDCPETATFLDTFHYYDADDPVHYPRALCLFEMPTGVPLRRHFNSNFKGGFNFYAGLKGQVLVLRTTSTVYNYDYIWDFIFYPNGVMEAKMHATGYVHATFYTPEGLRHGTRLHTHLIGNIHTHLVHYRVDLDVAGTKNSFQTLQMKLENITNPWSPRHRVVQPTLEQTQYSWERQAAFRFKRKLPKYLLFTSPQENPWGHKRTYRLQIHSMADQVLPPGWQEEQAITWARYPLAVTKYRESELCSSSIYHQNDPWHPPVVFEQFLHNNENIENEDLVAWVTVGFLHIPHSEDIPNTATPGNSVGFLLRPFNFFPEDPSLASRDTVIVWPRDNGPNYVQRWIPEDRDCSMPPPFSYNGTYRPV
# Outline: as §1
IC50 [1] [nM],IC50 (recombinant human VAP-1) [nM],IC50 [2] [nM],IC50 [3] [nM],Compound
> 100000,0.3,> 100000,> 100000,"NCC(Cn1ncn(Cc2ccc(-c3cc(F)c4[nH]c(=O)ccc4c3)s2)c1=O)=C(F)F [Example 137, 6-[5-[[1-[2-(aminomethyl)-3,3-difluoro-allyl]-5-oxo-1,2,4-triazol-4-yl]methyl]-2-thienyl]-8-fluoro-1H-quinolin-2-one Trifluoroacetate]"
> 100000,0.1,15000,13000,"CN1C(=O)CCc2cc(-c3ccc(Cn4cnn(CC(CN)=C(F)F)c4=O)s3)ccc21 [Example 138, 6-[5-[[1-[2-(aminomethyl)-3,3-difluoro-allyl]-5-oxo-1,2,4-triazol-4-yl]methyl]-2-thienyl]-1-methyl-3,4-dihydroquinolin-2-one Trifluoroacetate]"
21000,1,21000,73000,"Cc1c(-c2ccc(Cn3cnn(CC(CN)=C(F)F)c3=O)s2)ccc2c1NCCO2 [Example 139, 2-[2-(aminomethyl)-3,3-difluoro-allyl]-4-[[5-(5-methyl-3,4-dihydro-2H-1,4-benzoxazin-6-yl)-2-thienyl]methyl]-1,2,4-triazol-3-one Trifluoroacetate]"
6600,0.8,8000,6800,"CN1CCOc2cc(-c3ccc(Cn4cnn(CC(CN)=C(F)F)c4=O)s3)ccc21 [Example 140, 2-[2-(aminomethyl)-3,3-difluoro-allyl]-4-[[5-(4-methyl-2,3-dihydro-1,4-benzoxazin-7-yl)-2-thienyl]methyl]-1,2,4-triazol-3-one Trifluoroacetate]"
8100,0.6,20000,16000,"NCC(Cn1ncn(Cc2ccc(-c3ccc4c(c3)NC(=O)CO4)s2)c1=O)=C(F)F [Example 141, 6-[5-[[1-[2-(aminomethyl)-3,3-difluoro-allyl]-5-oxo-1,2,4-triazol-4-yl]methyl]-2-thienyl]-4H-1,4-benzoxazin-3-one Trifluoroacetate]"

# Further lines, the molecule ahead of its results:
Compound,IC50 [1] [nM],IC50 (recombinant human VAP-1) [nM],IC50 [2] [nM],IC50 [3] [nM]
"NCC(Cn1ncn(Cc2ccc(-c3ccc4nonc4c3)s2)c1=O)=C(F)F [Example 129, 2-[2-(aminomethyl)-3,3-difluoro-allyl]-4-[[5-(2,1,3-benzoxadiazol-5-yl)-2-thienyl]methyl]-1,2,4-triazol-3-one Trifluoroacetate]",> 100000,0.7,311,21000
"NCC(Cn1ncn(Cc2ccc(-c3cc(F)c4c(c3)CC(=O)N4)s2)c1=O)=C(F)F [Example 130, 5-[5-[[1-[2-(aminomethyl)-3,3-difluoro-allyl]-5-oxo-1,2,4-triazol-4-yl]methyl]-2-thienyl]-7-fluoro-indolin-2-one Trifluoroacetate]",> 100000,0.7,> 100000,> 100000
"CC(=O)Nc1nc2ccc(-c3ccc(Cn4cnn(CC(CN)=C(F)F)c4=O)s3)cc2s1 [Example 131, N-[6-[5-[[1-[2-(aminomethyl)-3,3-difluoro-allyl]-5-oxo-1,2,4-triazol-4-yl]methyl]-2-thienyl]-1,3-benzothiazol-2-yl]acetamide trifluoroacetate]",7800,0.4,12000,> 100000
"NCC(Cn1ncn(Cc2ccc(-c3ccc4c(c3)C(=O)NCC4)s2)c1=O)=C(F)F [Example 132, 7-[5-[[1-[2-(aminomethyl)-3,3-difluoro-allyl]-5-oxo-1,2,4-triazol-4-yl]methyl]-2-thienyl]-3,4-dihydro-2H-isoquinolin-1-one Trifluoroacetate]",> 100000,0.2,> 100000,> 100000
"NCC(Cn1ncn(Cc2ccc(-c3ccc4c(c3)CCC(=O)N4)s2)c1=O)=C(F)F [Example 133, 6-[5-[[1-[2-(aminomethyl)-3,3-difluoro-allyl]-5-oxo-1,2,4-triazol-4-yl]methyl]-2-thienyl]-3,4-dihydro-1H-quinolin-2-one Trifluoroacetate]",> 100000,0.2,> 100000,> 10000
"Cc1cc(-c2ccc(Cn3cnn(CC(CN)=C(F)F)c3=O)s2)cc2c1NC(=O)CC2 [Example 134, 6-[5-[[1-[2-(aminomethyl)-3,3-difluoro-allyl]-5-oxo-1,2,4-triazol-4-yl]methyl]-2-thienyl]-8-methyl-3,4-dihydro-1H-quinolin-2-one Trifluoroacetate]",> 100000,0.3,22000,> 100000
"Cc1cc(-c2ccc(Cn3cnn(CC(CN)=C(F)F)c3=O)s2)cc2ccc(=O)[nH]c12 [Example 135, 6-[5-[[1-[2-(aminomethyl)-3,3-difluoro-allyl]-5-oxo-1,2,4-triazol-4-yl]methyl]-2-thienyl]-8-methyl-1H-quinolin-2-one Trifluoroacetate]",> 100000,0.4,> 100000,79000
"NCC(Cn1ncn(Cc2ccc(-c3cc(F)c4c(c3)CCC(=O)N4)s2)c1=O)=C(F)F [Example 136, 6-[5-[[1-[2-(aminomethyl)-3,3-difluoro-allyl]-5-oxo-1,2,4-triazol-4-yl]methyl]-2-thienyl]-8-fluoro-3,4-dihydro-1H-quinolin-2-one Trifluoroacetate]",> 100000,0.4,> 100000,> 100000
